Experiments:
[1] = target: T1, hCA II (Homo sapiens, UniProt P00918); assay: Stopped-flow CO2 hydration CA inhibition assay, hCA II; format: biochemical; conditions: recombinant enzyme, 15 min pre-incubation
T1 construct: made in house
Protocol: (§1) An Applied Photophysics stopped-flow instrument has been used for assaying the CA catalysed CO2 hydration activity[22]. Phenol red (at a concentration of 0.2 mM) has been used as indicator, working at the absorbance maximum of 557 nm, with 20 mM Tris (pH 8.3) as buffer, and 20 mM Na2SO4 (for maintaining constant the ionic strength), following the initial rates of the CA-catalysed CO2 hydration reaction for a period of 10–100 s. The CO2 concentrations ranged from 1.7 to 17 mM for the determination of the kinetic parameters and inhibition constants. […] The uncatalysed rates were determined in the same manner and subtracted from the total observed rates. Stock solutions of inhibitor (0.1 mM) were prepared in distilled-deionised water and dilutions up to 0.005 nM were done thereafter with the assay buffer. Inhibitor and enzyme solutions were pre-incubated together for 15 min at room temperature prior to assay, in order to allow for the formation of the E–I complex. The inhibition constants were obtained by non-linear least-squares methods using PRISM 3 and the Cheng-Prusoff equation, as reported earlier, and represent the mean from at least three different determinations.

[2] = target: T2, hCA I (Homo sapiens, UniProt P00915); assay: Stopped-flow CO2 hydration CA inhibition assay, hCA I; format: biochemical; conditions: recombinant enzyme, 15 min pre-incubation
T2 construct: made in house
Protocol: as §1

[3] = target: T3, TrxR (Homo sapiens, UniProt Q16881); assay: TrxR activity by DTNB reduction assay in SHSY5Y cell lysate; format: biochemical
T3 sequence (Q16881 1-649): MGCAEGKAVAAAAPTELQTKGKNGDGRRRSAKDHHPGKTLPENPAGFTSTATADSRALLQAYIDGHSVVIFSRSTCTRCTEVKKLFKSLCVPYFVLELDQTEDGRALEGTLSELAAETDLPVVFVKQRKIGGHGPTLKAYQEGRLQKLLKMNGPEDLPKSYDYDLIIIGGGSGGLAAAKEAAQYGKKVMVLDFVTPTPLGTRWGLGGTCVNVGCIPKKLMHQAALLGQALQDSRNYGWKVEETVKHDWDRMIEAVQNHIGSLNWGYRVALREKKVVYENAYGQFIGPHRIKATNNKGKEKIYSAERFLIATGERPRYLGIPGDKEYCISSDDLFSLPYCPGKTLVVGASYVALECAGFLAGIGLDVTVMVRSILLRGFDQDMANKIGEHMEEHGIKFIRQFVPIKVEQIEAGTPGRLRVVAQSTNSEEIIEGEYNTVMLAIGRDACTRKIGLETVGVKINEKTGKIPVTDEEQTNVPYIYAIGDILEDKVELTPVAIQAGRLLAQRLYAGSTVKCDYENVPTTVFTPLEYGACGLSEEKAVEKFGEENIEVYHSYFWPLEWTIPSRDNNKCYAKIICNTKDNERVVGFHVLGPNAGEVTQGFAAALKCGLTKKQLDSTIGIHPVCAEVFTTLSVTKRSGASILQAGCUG
Protocol: Determination of TrxR activity in SHSY5Y cell lysate. TrxR activity in cell lysate was measured in 96-well plates using previously described methods[27]^,[28]. For TrxR activity measurement, compounds of different concentrations were incubated with 50 µg of cell lysate and 200 µM NADPH in a volume of 100 µL of 50 mM Tris–HCl and 1 mM EDTA, pH 7.5 (TE buffer), for different time points in 96-well plates at room temperature. […] TrxR activity was calculated as a percentage of enzyme activity of that of DMSO vehicle treated sample.

[4] = tested on: SHSY5Y (human neuroblastoma); assay: MTT cytotoxicity assay, SHSY5Y; format: cell-based; conditions: 48 h incubation
Protocol: (§2) About 2000–4000 cells per well (depending on line nature) were placed in 96-well plates and after 24 h compounds were added to the wells. Untreated cells were used as a control. The plates were incubated for 48 h, 37 °C, and 5% CO2. The number of surviving cells was determined using 3-(4,5-dimethylthiazol-2-yl)-2,5-diphenyltetrazolinium bromide (MTT). MTT-test: after incubating culture medium was removed and 200 µL fresh medium with 20 µL MTT (2 mg/mL in HBSS) was added in each well of the plate. After incubation (3 h, 37 °C, 5% CO2), the medium with MTT was removed and 200 µL DMSO were added at once to each sample. The samples were tested at 540 nm on Thermo Scientific Multiskan EX microplate photometer. The half-maximal inhibitory concentration (IC50) of each compound was calculated using Graph Pad Prism® 3.0 (GraphPad Software, La Jolla, CA).

[5] = tested on: HT-1080 (human fibrosarcoma); assay: MTT cytotoxicity assay, HT-1080; format: cell-based
Protocol: as §2

[6] = tested on: MCF-7 (breast adenocarcinoma); assay: MTT cytotoxicity assay, MCF-7; format: cell-based, human
Protocol: as §2

[7] = target: T4, hCA IX (Homo sapiens, UniProt Q16790); assay: Stopped-flow CO2 hydration CA inhibition assay, hCA IX; format: biochemical; conditions: recombinant enzyme, 15 min pre-incubation
T4 construct: made in house
Protocol: as §1

[8] = target: T5, hCA XII (Homo sapiens, UniProt O43570); assay: Stopped-flow CO2 hydration CA inhibition assay, hCA XII; format: biochemical; conditions: recombinant enzyme, 15 min pre-incubation
T5 construct: made in house
Protocol: as §1

[9] = Homo sapiens, HT-1080, 48 h incubation
[10] = Homo sapiens, MCF7, 48 h incubation

T2 sequence (P00915 whole entry): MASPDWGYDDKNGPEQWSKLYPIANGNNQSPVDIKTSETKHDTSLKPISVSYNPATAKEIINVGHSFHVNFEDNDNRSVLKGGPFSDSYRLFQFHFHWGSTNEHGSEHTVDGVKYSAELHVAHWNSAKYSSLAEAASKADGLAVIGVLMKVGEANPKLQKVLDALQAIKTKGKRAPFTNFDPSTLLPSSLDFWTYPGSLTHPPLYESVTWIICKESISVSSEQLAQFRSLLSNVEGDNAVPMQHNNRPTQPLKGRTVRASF
T5 sequence (O43570 25-354): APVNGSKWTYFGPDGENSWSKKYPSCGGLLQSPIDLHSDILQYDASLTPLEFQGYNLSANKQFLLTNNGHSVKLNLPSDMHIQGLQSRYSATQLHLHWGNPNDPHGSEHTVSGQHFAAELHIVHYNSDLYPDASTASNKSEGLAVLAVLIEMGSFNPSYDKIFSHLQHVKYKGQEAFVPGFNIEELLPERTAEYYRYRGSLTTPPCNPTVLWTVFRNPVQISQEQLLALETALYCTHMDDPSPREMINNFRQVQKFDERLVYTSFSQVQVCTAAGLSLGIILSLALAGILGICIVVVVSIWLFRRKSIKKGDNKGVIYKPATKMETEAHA

| Compound | Ki [1] [µM] | Ki [2] [µM] | IC50 [3] [µM] | IC50 [4] [µM] | IC50 ([5]; 48 h incubation) [µM] | IC50 ([6]; 48 h incubation) [µM] | IC50 ([4]; Homo sapiens, SH-SY5Y) [µM] | Ki [7] [µM] | IC50 [5, 9] [µM] | Ki [8] [µM] | IC50 [6, 10] [µM] |
| --- | --- | --- | --- | --- | --- | --- | --- | --- | --- | --- | --- |
| 1-(2,2-Dioxido-1,2-benzoxathiin-6-yl)-4-(4-fluorophenyl)-1H-1,2,3-triazole [Compound 1b] | > 10 | > 10 | 40 | – | – | – | – | – | – | – | – |
| 1-(2,2-Dioxido-1,2-benzoxathiin-6-yl)-5-(4-fluorophenyl)-1H-1,2,3-triazole [Compound 1d] | > 10 | > 10 | 125 | 18.5 | 7.9 | 50 | – | – | – | – | – |
| O=S1(=O)C=Cc2cc(-n3cc(-c4ccc(Cl)cc4)nn3)ccc2O1 [Compound 1a, 4-(4-Chlorophenyl)-1-(2,2-dioxido-1,2-benzoxathiin-6-yl)-1H-1,2,3-triazole] | – | – | – | – | – | – | 22 | 0.0078 | 11 | 0.0177 | 1.8 |
| O=S1(=O)C=Cc2cc(-c3nnnn3-c3ccccc3)ccc2O1 [Compound 1c, 5-(2,2-Dioxido-1,2-benzoxathiin-6-yl)-1-phenyl-1H-tetrazole] | – | – | – | – | – | – | 18.4 | 0.0085 | 12.3 | 0.0071 | 101 |

Reference: PMC7006680, “Sulfocoumarins as dual inhibitors of human carbonic anhydrase isoforms IX/XII and of human thioredoxin reductase” (Journal of Enzyme Inhibition and Medicinal Chemistry, 2020)
